Results: patent US9556165B2 (priority 2012, dated 2017)
Converted amounts (≈) assume the structure as drawn. Where two headings read alike, the source gives them in different places.

Key:
Type in all cases: cell-based
[1] = tested on: E. cloacae 34654; assay: MIC determination, broth microdilution (CLSI); conditions: Enterobacter cloacae, 34654, strain 3
[2] = tested on: E. coli J62; assay: MIC determination, broth microdilution (CLSI); conditions: Escherichia coli, J62, strain 17; broth microdilution; read-out: MIC strain 17 (E. coli J62)
[3] = tested on: C. freundii K21/3034; assay: MIC determination, broth microdilution (CLSI); conditions: Citrobacter freundii, K21/3034, strain 4
[4] = tested on: P. aeruginosa 2297-con (AmpC derepressed); assay: MIC determination, broth microdilution (CLSI); conditions: Pseudomonas aeruginosa, read-out: strain 8 MIC, strain 8
[5] = tested on: S. aureus 133; assay: MIC determination, broth microdilution (CLSI)
[6] = tested on: Bacteria; assay: MIC determination in combination with β-lactamase inhibitors (constant 4 μg/mL)
[7] = tested on: E. coli ATCC25922; assay: MIC determination, broth microdilution (CLSI); conditions: for MIC: Escherichia coli, ATCC25922, strain 1
[8] = tested on: P. aeruginosa PAO1; assay: MIC determination, broth microdilution (CLSI); conditions: Pseudomonas aeruginosa, PAO1, strain 6
[9] = tested on: P. aeruginosa 2297 (AmpC wt); assay: MIC determination, broth microdilution (CLSI); conditions: Pseudomonas aeruginosa, strain 7
[10] = tested on: A. baumannii ATCC15308; assay: MIC determination, broth microdilution (CLSI); conditions: Acinetobacter baumannii, ATCC15308, strain 9
[11] = tested on: M. morganii 126/3048; assay: MIC determination, broth microdilution (CLSI); conditions: Morganella morganii, 126/3048, strain 5
[12] = tested on: K. pneumoniae 60; assay: MIC determination, broth microdilution (CLSI); conditions: Klebsiella pneumoniae, 60, strain 2
[13] = tested on: E. coli J62-TEM-3; assay: MIC determination, broth microdilution (CLSI); conditions: Escherichia coli, J62TEM3, read-out: MIC strain 18 (E. coli J62-TEM-3), strain 18; broth microdilution
[14] = tested on: B. fragilis 6688; assay: MIC determination, broth microdilution (CLSI); conditions: Bacteroides fragilis, 6688, strain 15; broth microdilution; read-out: MIC strain 15 (B. fragilis 6688)
[15] = tested on: S. pneumoniae 113; assay: MIC determination, broth microdilution (CLSI); conditions: Streptococcus pneumoniae, 113, strain 13; broth microdilution; read-out: MIC strain 13 (S. pneumoniae 113)
[16] = tested on: H. influenzae ATCC 49247; assay: MIC determination, broth microdilution (CLSI); conditions: Haemophilus influenzae, ATCC49247, strain 12; broth microdilution; read-out: MIC strain 12 (H. influenzae ATCC 49247)
[17] = Staphylococcus aureus, 133, strain 14, broth microdilution, read-out: MIC strain 14 (S. aureus 133)
[18] = Staphylococcus aureus, 133, strain 11, read-out: strain 11 MIC

Compound	MIC [1]	MIC [2]	MIC [3]	MIC [4]	MIC [5, 17]	MIC strain 19 (E. coli J62-TEM-3 + 4 μg/mL clavulanic acid) [6]	MIC strain 20 (E. coli J62-TEM-3 + 4 μg/mL sulbactam) [6]	MIC strain 21 (E. coli J62-TEM-3 + 4 μg/mL tazobactam) [6]	MIC [7]	MIC [8]	MIC [9]	MIC [10]	MIC [11]	MIC [12]	MIC [13]	MIC [14]	MIC [15]	MIC [5, 18]	MIC [16]	strain 1 MIC ([7]; strain 1)
C[C@H]1[C@H](NC(=O)/C(=N\OCCOc2cccc(C(=N)N)c2)c2csc(N)n2)C(=O)N1S(=O)(=O)O [Example 53, (2S,3S)-3-{[(2Z)-2-(2-Amino-1,3-thiazol-4-yl)-2-{[2-(3-carbamimidoylphenoxy)ethoxy]imino}acetyl]amino}-2-methyl-4-oxoazetidine-1-sulfonic acid]	0.5 µg/mL (≈ 0.977 µM)	1 µg/mL (≈ 1.95 µM)	0.5 µg/mL (≈ 0.977 µM)	32 µg/mL (≈ 62.6 µM)	32 µg/mL (≈ 62.6 µM)	1 mg/L	1 mg/L	1 mg/L	0.5 µg/mL (≈ 0.977 µM)	16 µg/mL (≈ 31.3 µM)	16 µg/mL (≈ 31.3 µM)	4 µg/mL (≈ 7.82 µM)	2 µg/mL (≈ 3.91 µM)							
CC(C)NC(=N)c1ccc(OCCO/N=C(\C(=O)N[C@@H]2C(=O)N(S(=O)(=O)O)[C@H]2C)c2csc(N)n2)cc1 [Example 54, (2S,3S)-3-({(2Z)-2-(2-Amino-1,3-thiazol-4-yl)-2-[(2-{4-[N-(propan-2-yl)carbamimidoyl]phenoxy}ethoxy)imino]acetyl}amino)-2-methyl-4-oxoazetidine-1-sulfonic acid]	0.5 µg/mL (≈ 0.903 µM)	0.5 µg/mL (≈ 0.903 µM)	0.25 µg/mL (≈ 0.452 µM)		2 µg/mL (≈ 3.61 µM)	0.5 mg/L	0.25 mg/L	0.5 mg/L	0.5 µg/mL (≈ 0.903 µM)	4 µg/mL (≈ 7.23 µM)	8 µg/mL (≈ 14.5 µM)	4 µg/mL (≈ 7.23 µM)	1 µg/mL (≈ 1.81 µM)	0.5 µg/mL (≈ 0.903 µM)	16 µg/mL (≈ 28.9 µM)					
C[C@H]1[C@H](NC(=O)/C(=N\OCc2ccc(C(=N)N)cc2)c2csc(N)n2)C(=O)N1S(=O)(=O)O [Example 55, (2S,3S)-3-{[(2Z)-2-(2-Amino-1,3-thiazol-4-yl)-2-{[(4-carbamimidoylbenzyl)oxy]imino}-acetyl]amino}-2-methyl-4-oxoazetidine-1-sulfonic acid]	0.5 µg/mL (≈ 1.04 µM)	1 µg/mL (≈ 2.08 µM)	0.25 µg/mL (≈ 0.519 µM)	32 µg/mL (≈ 66.5 µM)	8 µg/mL (≈ 16.6 µM)	1 mg/L	0.5 mg/L	0.5 mg/L	0.5 µg/mL (≈ 1.04 µM)	16 µg/mL (≈ 33.2 µM)		4 µg/mL (≈ 8.31 µM)	0.25 µg/mL (≈ 0.519 µM)	1 µg/mL (≈ 2.08 µM)		8 µg/mL (≈ 16.6 µM)	0.125 µg/mL (≈ 0.26 µM)	0.25 µg/mL (≈ 0.519 µM)	1 µg/mL (≈ 2.08 µM)	
C[C@H]1[C@H](NC(=O)/C(=N\OCCOCc2cc(C(=N)N)cs2)c2csc(N)n2)C(=O)N1S(=O)(=O)O [Example 56, (2S,3S)-3-{[(2Z)-2-(2-Amino-1,3-thiazol-4-yl)-2-({2-[(4-carbamimidoylthiophen-2-yl)methoxy]ethoxy}imino)acetyl]amino}-2-methyl-4-oxoazetidine-1-sulfonic acid]	4 µg/mL (≈ 7.52 µM)	2 µg/mL (≈ 3.76 µM)	0.5 µg/mL (≈ 0.941 µM)		8 µg/mL (≈ 15 µM)	1 mg/L	4 mg/L	4 mg/L	2 µg/mL (≈ 3.76 µM)	32 µg/mL (≈ 60.2 µM)	32 µg/mL (≈ 60.2 µM)	4 µg/mL (≈ 7.52 µM)	0.5 µg/mL (≈ 0.941 µM)	0.5 µg/mL (≈ 0.941 µM)	32 µg/mL (≈ 60.2 µM)	32 µg/mL (≈ 60.2 µM)	4 µg/mL (≈ 7.52 µM)	1 µg/mL (≈ 1.88 µM)	2 µg/mL (≈ 3.76 µM)	
C[C@H]1[C@H](NC(=O)/C(=N\OCCOc2nnc(C(=N)N)s2)c2csc(N)n2)C(=O)N1S(=O)(=O)O [Example 65, (2S,3S)-3-{[(2Z)-2-(2-Amino-1,3-thiazol-4-yl)-2-({2-[(5-carbamimidoyl-1,3,4-thiadiazol-2-yl)oxy]ethoxy}imino)acetyl]amino}-2-methyl-4-oxoazetidine-1-sulfonic acid]	0.5 µg/mL (≈ 0.962 µM)	1 µg/mL (≈ 1.92 µM)	0.25 µg/mL (≈ 0.481 µM)		8 µg/mL (≈ 15.4 µM)	0.5 mg/L	1 mg/L	2 mg/L	0.5 µg/mL (≈ 0.962 µM)	16 µg/mL (≈ 30.8 µM)	32 µg/mL (≈ 61.6 µM)	8 µg/mL (≈ 15.4 µM)	0.125 µg/mL (≈ 0.241 µM)	0.25 µg/mL (≈ 0.481 µM)	32 µg/mL (≈ 61.6 µM)	16 µg/mL (≈ 30.8 µM)	1 µg/mL (≈ 1.92 µM)	0.25 µg/mL (≈ 0.481 µM)	0.5 µg/mL (≈ 0.962 µM)	
C[C@H]1[C@H](NC(=O)/C(=N\OCCOc2ccc(C(=N)NCCOC=O)cc2)c2csc(N)n2)C(=O)N1S(=O)(=O)O [Example 70, (2S,3S)-3-{[(2Z)-2-(2-Amino-1,3-thiazol-4-yl)-2-{[2-(4-{N-[2-(formyloxy)ethyl]carbamimidoyl}phenoxy)ethoxy]imino}acetyl]amino}-2-methyl-4-oxoazetidine-1-sulfonic acid]	0.25 µg/mL (≈ 0.428 µM)	0.25 µg/mL (≈ 0.428 µM)	0.125 µg/mL (≈ 0.214 µM)		8 µg/mL (≈ 13.7 µM)	0.25 mg/L	0.25 mg/L	0.25 mg/L	0.125 µg/mL (≈ 0.214 µM)	4 µg/mL (≈ 6.85 µM)	4 µg/mL (≈ 6.85 µM)	2 µg/mL (≈ 3.43 µM)	0.125 µg/mL (≈ 0.214 µM)	0.25 µg/mL (≈ 0.428 µM)	16 µg/mL (≈ 27.4 µM)	16 µg/mL (≈ 27.4 µM)	0.5 µg/mL (≈ 0.857 µM)	0.125 µg/mL (≈ 0.214 µM)	0.125 µg/mL (≈ 0.214 µM)	
C[C@H]1[C@H](NC(=O)/C(=N\OCCOc2cc(C(=N)N)n(C)n2)c2csc(N)n2)C(=O)N1S(=O)(=O)O [Example 72, (2S,3S)-3-{[(2Z)-2-(2-Amino-1,3-thiazol-4-yl)-2-({2-[(5-carbamimidoyl-1-methyl-1H-pyrazol-3-yl)oxy]ethoxy}imino)acetyl]amino}-2-methyl-4-oxoazetidine-1-sulfonic acid]	1 µg/mL (≈ 1.94 µM)	1 µg/mL (≈ 1.94 µM)	0.5 µg/mL (≈ 0.97 µM)		16 µg/mL (≈ 31 µM)	1 mg/L	1 mg/L	1 mg/L	0.5 µg/mL (≈ 0.97 µM)	8 µg/mL (≈ 15.5 µM)	8 µg/mL (≈ 15.5 µM)	4 µg/mL (≈ 7.76 µM)	0.25 µg/mL (≈ 0.485 µM)	0.25 µg/mL (≈ 0.485 µM)	32 µg/mL (≈ 62.1 µM)	16 µg/mL (≈ 31 µM)	2 µg/mL (≈ 3.88 µM)	0.25 µg/mL (≈ 0.485 µM)	0.5 µg/mL (≈ 0.97 µM)	
C[C@H]1[C@H](NC(=O)/C(=N\OCCOc2ccc(C(=N)NCCN)cc2)c2csc(N)n2)C(=O)N1OCS(=O)(=O)O [Example 77, {[(2S,3S)-3-{[(2Z)-2-[(2-{4-[N-(2-Aminoethyl)carbamimidoyl]phenoxy}ethoxy)imino]-2-(2-amino-1,3-thiazol-4-yl)acetyl]amino}-2-methyl-4-oxoazetidin-1-yl]oxy}methanesulfonic acid]	2 µg/mL (≈ 3.42 µM)	0.5 µg/mL (≈ 0.855 µM)	0.5 µg/mL (≈ 0.855 µM)			1 mg/L	1 mg/L	1 mg/L	0.5 µg/mL (≈ 0.855 µM)	8 µg/mL (≈ 13.7 µM)	16 µg/mL (≈ 27.4 µM)	8 µg/mL (≈ 13.7 µM)	2 µg/mL (≈ 3.42 µM)	2 µg/mL (≈ 3.42 µM)	16 µg/mL (≈ 27.4 µM)					
CC1(C)[C@H](NC(=O)/C(=N\O[C@H](COc2ccc(C(=N)NCc3ncc[nH]3)cc2)C(=O)O)c2csc(N)n2)C(=O)N1OS(=O)(=O)O [Example 105, (2R)-2-({[(1Z)-1-(2-Amino-1,3-thiazol-4-yl)-2-{[(3S)-2,2-dimethyl-4-oxo-1-(sulfooxy)-azetidin-3-yl]amino}-2-oxoethylidene]amino}oxy)-3-{4-[N-(1H-imidazol-2-ylmeth-yl)carbamimidoyl]phenoxy}propanoic acid]																				16 mg/L
CC1(C)[C@H](NC(=O)/C(=N\O[C@H](COc2ccc(C(=N)NCCNc3ncccn3)cc2)C(=O)O)c2csc(N)n2)C(=O)N1OS(=O)(=O)O [Example 111, (2R)-2-({[(1Z)-1-(2-Amino-1,3-thiazol-4-yl)-2-{[(3S)-2,2-dimethyl-4-oxo-1-(sulfooxy)-azetidin-3-yl]amino}-2-oxoethylidene]amino}oxy)-3-(4-{N-[2-(pyrimidin-2-ylamino)ethyl]carbamimidoyl}phenoxy)propanoic acid]	16 µg/mL (≈ 22.6 µM)	16 µg/mL (≈ 22.6 µM)	4 µg/mL (≈ 5.66 µM)	32 µg/mL (≈ 45.3 µM)		8 mg/L	8 mg/L	8 mg/L	8 µg/mL (≈ 11.3 µM)	32 µg/mL (≈ 45.3 µM)	32 µg/mL (≈ 45.3 µM)	32 µg/mL (≈ 45.3 µM)	8 µg/mL (≈ 11.3 µM)	8 µg/mL (≈ 11.3 µM)	32 µg/mL (≈ 45.3 µM)		2 µg/mL (≈ 2.83 µM)		0.25 µg/mL (≈ 0.354 µM)	
